Values quoted from earlier work as cited in US10174015B2, “Substituted heterocyclic derivative, preparation method and use thereof” (Xiamen University, priority 2014, dated 2019).

Columns and labels:
[1] = system: leukocyte migration and inflammatory exudation; conditions: topical administration; cited from earlier work
NAAA = NAAA inhibitor, literature value; cited from earlier work

O=C(CCc1ccccc1)N[C@H]1COC1=O [S-OOPP]
effect on leukocyte migration and inflammatory exudation [1]: inhibiting leukocyte migration and inflammatory exudation
IC50 (NAAA): 420 nM
